According to ChEMBL document CHEMBL1201861, “Genomics of Drug Sensitity in Cancer screening data, Wellcome Trust Sanger Institute”:

Legend:
Test in all cases: cells
[1] = tested on: PC-3; assay type: functional, cell-based; conditions: Homo sapiens;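 also: cell viability assay measuring growth inhibition of PC-3 cells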
Description: SANGER: Inhibition of human PC-3 cell growth in a cell viability assay.

[2] = tested on: NCI-H226; assay type: functional, cell-based, Homo sapiens; conditions: Homo sapiens, NCI-H226;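 also: cell viability read-out used to gauge growth inhibition of the cells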
Description: SANGER: Inhibition of human NCI-H226 cell growth in a cell viability assay.

[3] = tested on: COLO-800; assay type: functional, cell-based, Homo sapiens; conditions: Homo sapiens, COLO-800;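 also: growth inhibition of COLO-800 cells, read out with a cell viability assay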
Description: SANGER: Inhibition of human COLO-800 cell growth in a cell viability assay.

[4] = tested on: SW 962; assay type: functional, cell-based, Homo sapiens; conditions: Homo sapiens, SW 962;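 also: growth inhibition of human SW962 cells, read out by a cell viability assay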
Description: SANGER: Inhibition of human SW962 cell growth in a cell viability assay.

[5] = tested on: MMAC-SF; assay type: functional, cell-based; conditions: Homo sapiens;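 also: growth inhibition of human MMAC-SF cells, read out with a cell viability assay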
[6] = tested on: NTERA-2-cl-D1; assay type: functional, cell-based, Homo sapiens; conditions: Homo sapiens, NTERA-2-cl-D1;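 also: inhibition of cell growth, measured with a cell viability assay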
Description: SANGER: Inhibition of human NTERA-S-cl-D1 cell growth in a cell viability assay.

[7] = tested on: EM-2; assay type: functional, cell-based, Homo sapiens; conditions: Homo sapiens, EM-2;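 also: growth inhibition of EM-2 cells, read out with a cell viability assay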
Description: SANGER: Inhibition of human EM-2 cell growth in a cell viability assay.

[8] = tested on: KM12; assay type: functional, cell-based, Homo sapiens; conditions: Homo sapiens, KM12;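 also: KM12 cell growth inhibition, read out with a cell viability assay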
Description: SANGER: Inhibition of human KM12 cell growth in a cell viability assay.

[9] = tested on: COR-L88; assay type: functional, cell-based, Homo sapiens; conditions: Homo sapiens, COR-L88;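 also: growth inhibition of COR-L88 cells, read out with a cell viability assay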
Description: SANGER: Inhibition of human COR-L88 cell growth in a cell viability assay.

[10] = tested on: OVCAR-4; assay type: functional, cell-based, Homo sapiens; conditions: Homo sapiens, OVCAR-4;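 also: growth inhibition of human OVCAR-4 cells, measured with a cell viability assay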
Description: SANGER: Inhibition of human OVCAR-4 cell growth in a cell viability assay.

[11] = tested on: NCI-N87; assay type: functional, cell-based; conditions: Homo sapiens;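 also: growth inhibition of human NCI-N87 cells, read out with a cell viability assay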
Description: SANGER: Inhibition of human NCI-N87 cell growth in a cell viability assay.

[12] = tested on: KGN; assay type: functional, cell-based, Homo sapiens; conditions: Homo sapiens, KGN;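 also: growth inhibition of KGN cells, read out with a cell viability assay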
Description: SANGER: Inhibition of human KGN cell growth in a cell viability assay.

[13] = tested on: J-RT3-T3-5; assay type: functional, cell-based, Homo sapiens; conditions: Homo sapiens, J-RT3-T3-5;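 also: cell viability assay measuring growth inhibition of human J-RT3-T3-5 cells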
Description: SANGER: Inhibition of human J-RT3-T3-5 cell growth in a cell viability assay.

[14] = tested on: EW-18; assay type: functional, cell-based, Homo sapiens; conditions: Homo sapiens, EW-18; read-out: IC50;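 also: growth inhibition of EW-18 cells, read out by a cell viability assay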
Description: SANGER: Inhibition of human EW-18 cell growth in a cell viability assay.

[15] = tested on: A4-Fuk; assay type: functional, cell-based, Homo sapiens; conditions: Homo sapiens, A4-Fuk;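 also: growth inhibition of A4-Fuk cells, read out by a cell viability assay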
Description: SANGER: Inhibition of human A4-Fuk cell growth in a cell viability assay.

[16] = tested on: no-11; assay type: functional, cell-based, Homo sapiens; conditions: Homo sapiens;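 also: growth inhibition of human NO-11 cells, read out with a cell viability assay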
Description: SANGER: Inhibition of human no-11 cell growth in a cell viability assay.

[17] = tested on: MS-1; assay type: functional, cell-based, Homo sapiens; conditions: Homo sapiens, MS-1;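 also: growth inhibition of MS-1 cells, read out by cell viability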
Description: SANGER: Inhibition of human MS-1 cell growth in a cell viability assay.

[18] = tested on: D-502MG; assay type: functional, cell-based, Homo sapiens; conditions: Homo sapiens, D-502MG
Description: SANGER: Inhibition of human D-502MG cell growth in a cell viability assay.

[19] = tested on: RXF 393; assay type: functional, cell-based, Homo sapiens; conditions: Homo sapiens, RXF 393;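 also: growth inhibition of human RXF 393 cells, read out with a cell viability assay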
Description: SANGER: Inhibition of human RXF393 cell growth in a cell viability assay.

[20] = tested on: COLO-668; assay type: functional, cell-based, Homo sapiens; conditions: Homo sapiens, COLO-668
Description: SANGER: Inhibition of human COLO-668 cell growth in a cell viability assay.

[21] = tested on: SNB-75; assay type: functional, cell-based, Homo sapiens; conditions: Homo sapiens, SNB-75;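 also: cell viability assay measuring growth inhibition of human SNB-75 cells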
Description: SANGER: Inhibition of human SNB75 cell growth in a cell viability assay.

[22] = tested on: P31-FUJ; assay type: functional, cell-based, Homo sapiens; conditions: Homo sapiens, P31-FUJ;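 also: growth inhibition of P31-FUJ cells, read out with a viability assay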
Description: SANGER: Inhibition of human P31-FUJ cell growth in a cell viability assay.

[23] = tested on: IST-SL1; assay type: functional, cell-based, Homo sapiens; conditions: Homo sapiens, IST-SL1;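 also: growth inhibition of human IST-SL1 cells, read out with a cell viability assay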
Description: SANGER: Inhibition of human IST-SL1 cell growth in a cell viability assay.

[24] = tested on: GAK; assay type: functional, cell-based, Homo sapiens; conditions: Homo sapiens, GAK;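 also: cell growth inhibition read out by a cell viability assay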
Description: SANGER: Inhibition of human GAK cell growth in a cell viability assay.

[25] = tested on: KLE; assay type: functional, cell-based; conditions: Homo sapiens;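 also: growth inhibition of human KLE cells, read out with a cell viability assay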
Description: SANGER: Inhibition of human KLE cell growth in a cell viability assay.

[26] = tested on: MN-60; assay type: functional, cell-based, Homo sapiens; conditions: Homo sapiens, MN-60;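 also: growth inhibition of the MN-60 cell line, determined with a cell viability assay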
Description: SANGER: Inhibition of human MN-60 cell growth in a cell viability assay.

[27] = tested on: HCE-T; assay type: functional, cell-based, Homo sapiens; conditions: Homo sapiens, HCE-T;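 also: cell viability assay read-out, reporting inhibition of HCE-T cell growth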
Description: SANGER: Inhibition of human HCE-T cell growth in a cell viability assay.

[28] = tested on: NB5; assay type: functional, cell-based, Homo sapiens; conditions: Homo sapiens, NB5;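 also: growth inhibition of NB5 cells, read out as cell viability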
Description: SANGER: Inhibition of human NB5 cell growth in a cell viability assay.

[29] = tested on: U-266; assay type: functional, cell-based, Homo sapiens; conditions: Homo sapiens, U-266
[30] = tested on: QIMR-WIL; assay type: functional, cell-based, Homo sapiens; conditions: Homo sapiens, QIMR-WIL;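 also: growth inhibition of QIMR-WIL cells, read out with a cell viability assay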
Description: SANGER: Inhibition of human QIMR-WIL cell growth in a cell viability assay.

[31] = tested on: GI-1; assay type: functional, cell-based, Homo sapiens; conditions: Homo sapiens, GI-1;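 also: growth inhibition of human GI-1 cells, measured with a cell viability readout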
[32] = tested on: GI-ME-N; assay type: functional, cell-based, Homo sapiens; conditions: Homo sapiens, GI-ME-N;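 also: growth inhibition of human GI-ME-N cells, read out with a cell viability assay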
Description: SANGER: Inhibition of human GI-ME-N cell growth in a cell viability assay.

[33] = tested on: OCUB-M; assay type: functional, cell-based; conditions: Homo sapiens;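 also: growth inhibition of the cancer cell line, read out through a cell viability assay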
Description: SANGER: Inhibition of human OCUB-M cell growth in a cell viability assay.

[34] = tested on: IA-LM; assay type: functional, cell-based; conditions: Homo sapiens;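 also: cell viability assay measuring growth inhibition of human IA-LM cells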
Description: SANGER: Inhibition of human IA-LM cell growth in a cell viability assay.

[35] = tested on: MZ7-mel; assay type: functional, cell-based, Homo sapiens; conditions: Homo sapiens, MZ7-mel;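 also: growth inhibition of human MZ7-mel cells, measured by a cell viability assay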
Description: SANGER: Inhibition of human MZ7-mel cell growth in a cell viability assay.

[36] = tested on: SH-4; assay type: functional, cell-based; conditions: Homo sapiens;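 also: growth inhibition of SH-4 cells, read out with a cell viability assay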
Description: SANGER: Inhibition of human SH-4 cell growth in a cell viability assay.

[37] = tested on: ETK-1; assay type: functional, cell-based, Homo sapiens; conditions: Homo sapiens, ETK-1;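 also: growth inhibition of human ETK-1 cells, read out with a cell viability assay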
Description: SANGER: Inhibition of human ETK-1 cell growth in a cell viability assay.

[38] = tested on: KG-1; assay type: functional, cell-based, Homo sapiens; conditions: Homo sapiens, KG-1;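 also: growth inhibition of KG-1 cells, read out by a cell viability assay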
Description: SANGER: Inhibition of human KG-1 cell growth in a cell viability assay.

[39] = tested on: UACC-257; assay type: functional, cell-based, Homo sapiens; conditions: Homo sapiens, UACC-257
Description: SANGER: Inhibition of human UACC-257 cell growth in a cell viability assay.

[40] = tested on: CTV-1; assay type: functional, cell-based, Homo sapiens; conditions: Homo sapiens, CTV-1;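 also: growth inhibition of the cell line, read out with a cell viability assay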
Description: SANGER: Inhibition of human CTV-1 cell growth in a cell viability assay.

[41] = tested on: LXF-289 cell line; assay type: functional, cell-based; conditions: Homo sapiens
Description: SANGER: Inhibition of human LXF-289 cell growth in a cell viability assay.

[42] = tested on: HCE-4; assay type: functional, cell-based; conditions: Homo sapiens;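 also: cell viability assay measuring inhibition of growth in the human HCE-4 cell line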
Description: SANGER: Inhibition of human HCE-4 cell growth in a cell viability assay.

[43] = tested on: HCC1187; assay type: functional, cell-based, Homo sapiens; conditions: Homo sapiens, HCC1187;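 also: growth inhibition of HCC1187 cells, read out with a cell viability assay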
Description: SANGER: Inhibition of human HCC1187 cell growth in a cell viability assay.

[44] = tested on: LB2518-MEL; assay type: functional, cell-based; conditions: Homo sapiens;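 also: growth inhibition of human LB2518-MEL cells, measured with a cell viability assay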
[45] = tested on: OCI-AML2; assay type: functional, cell-based, Homo sapiens; conditions: Homo sapiens, OCI-AML2;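 also: growth inhibition of OCI-AML2 cells, read out with a cell viability assay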
[46] = tested on: KURAMOCHI; assay type: functional, cell-based, Homo sapiens; conditions: Homo sapiens, KURAMOCHI;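 also: growth inhibition of KURAMOCHI cells, read out with a cell viability assay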
Description: SANGER: Inhibition of human KURAMOCHI cell growth in a cell viability assay.

[47] = tested on: NCI-H1355; assay type: functional, cell-based, Homo sapiens; conditions: Homo sapiens, NCI-H1355;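 also: growth inhibition of human NCI-H1355 cells, read out by a cell viability assay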
Description: SANGER: Inhibition of human NCI-H1355 cell growth in a cell viability assay.

[48] = tested on: KY821; assay type: functional, cell-based, Homo sapiens; conditions: Homo sapiens, KY821;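 also: growth inhibition of human KY821 cells, read out by a cell viability assay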
Description: SANGER: Inhibition of human KY821 cell growth in a cell viability assay.

[49] = tested on: SNU-C2B; assay type: functional, cell-based; conditions: Homo sapiens;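 also: cell viability readout used to measure compound-driven suppression of SNU-C2B cell proliferation, IC50 marking half-maximal growth inhibition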
Description: SANGER: Inhibition of human SNU-C2B cell growth in a cell viability assay.

[50] = tested on: HDLM-2; assay type: functional, cell-based, Homo sapiens; conditions: Homo sapiens, HDLM-2;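 also: cell viability assay measuring suppression of HDLM-2 proliferation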
Description: SANGER: Inhibition of human HDLM-2 cell growth in a cell viability assay.

[51] = tested on: KU812 cell line; assay type: functional, cell-based, Homo sapiens; conditions: Homo sapiens, KU812;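 also: growth inhibition of KU812 cells, read out with a cell viability assay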
Description: SANGER: Inhibition of human KU812 cell growth in a cell viability assay.

[52] = tested on: Ramos-2G6-4C10; assay type: functional, cell-based, Homo sapiens; conditions: Homo sapiens, Ramos-2G6-4C10;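 also: growth inhibition of the cell line, measured by a cell viability read-out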
Description: SANGER: Inhibition of human Ramos-2G6-4C10 cell growth in a cell viability assay.

O=S(=O)(O)c1ccc2cc(/N=N/c3cc(S(=O)(=O)O)c4cccnc4c3O)ccc2c1
IC50 [1]: > 16000 nM
IC50 [2]: > 16000 nM
IC50 [3]: > 16000 nM
IC50 [4]: > 16000 nM
IC50 [5]: > 16000 nM
IC50 [6]: > 16000 nM
IC50 [7]: > 16000 nM
IC50 [8]: > 16000 nM
IC50 [9]: > 16000 nM
IC50 [10]: > 16000 nM
IC50 [11]: > 16000 nM
IC50 [12]: > 16000 nM
IC50 [13]: > 16000 nM
IC50 [14]: > 16000 nM
IC50 [15]: > 16000 nM
IC50 [16]: > 16000 nM
IC50 [17]: > 16000 nM
IC50 [18]: > 16000 nM
IC50 [19]: > 16000 nM
IC50 [20]: > 16000 nM
IC50 [21]: > 16000 nM
IC50 [22]: > 16000 nM
IC50 [23]: > 16000 nM
IC50 [24]: > 16000 nM
IC50 [25]: > 16000 nM
IC50 [26]: > 16000 nM
IC50 [27]: > 16000 nM
IC50 [28]: > 16000 nM
IC50 [29]: > 16000 nM
IC50 [30]: > 16000 nM
IC50 [31]: > 16000 nM
IC50 [32]: > 16000 nM
IC50 [33]: > 16000 nM
IC50 [34]: > 16000 nM
IC50 [35]: > 16000 nM
IC50 [36]: > 16000 nM
IC50 [37]: > 16000 nM
IC50 [38]: > 16000 nM
IC50 [39]: > 16000 nM
IC50 [40]: > 16000 nM
IC50 [41]: > 16000 nM
IC50 [42]: > 16000 nM
IC50 [43]: > 16000 nM
IC50 [44]: > 16000 nM
IC50 [45]: > 16000 nM
IC50 [46]: > 16000 nM
IC50 [47]: > 16000 nM
IC50 [48]: > 16000 nM
IC50 [49]: > 16000 nM
IC50 [50]: > 16000 nM
IC50 [51]: > 16000 nM
IC50 [52]: > 16000 nM

C[C@@H](Oc1cc(-c2cnn(C3CCNCC3)c2)cnc1N)c1c(Cl)ccc(F)c1Cl [CRIZOTINIB]
IC50 [2]: > 2000 nM
IC50 [3]: > 2000 nM
IC50 [4]: > 2000 nM
IC50 [5]: > 2000 nM
IC50 [6]: > 2000 nM
IC50 [7]: 601 nM
IC50 [8]: 707 nM
IC50 [9]: > 2000 nM
IC50 [10]: > 2000 nM
IC50 [11]: > 2000 nM
IC50 [12]: > 2000 nM
IC50 [13]: > 2000 nM
IC50 [14]: > 2000 nM
IC50 [15]: > 2000 nM
IC50 [16]: > 2000 nM
IC50 [17]: > 2000 nM
IC50 [18]: > 2000 nM
IC50 [19]: > 2000 nM
IC50 [20]: > 2000 nM
IC50 [21]: > 2000 nM
IC50 [22]: > 2000 nM
IC50 [23]: > 2000 nM
IC50 [25]: > 2000 nM
IC50 [26]: > 2000 nM
IC50 [27]: > 2000 nM
IC50 [28]: > 2000 nM
IC50 [29]: > 2000 nM
IC50 [30]: > 2000 nM
IC50 [31]: > 2000 nM
IC50 [32]: > 2000 nM
IC50 [33]: > 2000 nM
IC50 [34]: > 2000 nM
IC50 [35]: > 2000 nM
IC50 [36]: > 2000 nM
IC50 [37]: > 2000 nM
IC50 [38]: > 2000 nM
IC50 [39]: > 2000 nM
IC50 [40]: 596 nM
IC50 [41]: > 2000 nM
IC50 [42]: > 2000 nM
IC50 [43]: > 2000 nM
IC50 [44]: > 2000 nM
IC50 [45]: > 2000 nM
IC50 [46]: > 2000 nM
IC50 [47]: > 2000 nM
IC50 [48]: > 2000 nM
IC50 [49]: > 2000 nM
IC50 [50]: > 2000 nM
IC50 [51]: > 2000 nM
IC50 [52]: > 2000 nM
